Data taken from US10844077B2, “Thiazolyl-containing compounds for treating proliferative diseases” (Dana-Farber Cancer Institute, Inc., priority 2014, dated 2020).
Like-named read-outs stand apart in the source and are kept apart here.

Key:
Assay type in all cases: binding
[1] = molecular target: broad panel of kinases (Homo sapiens, UniProt P49759); conditions: CLK1; 1 μM
[2] = molecular target: broad panel of kinases (Homo sapiens, UniProt P24723); conditions: PRKCH; 1 μM
[3] = molecular target: broad panel of kinases (Homo sapiens, UniProt P00519, T315I); conditions: 1 μM
[4] = molecular target: broad panel of kinases (Homo sapiens, UniProt Q13523); conditions: PRP4; 1 μM
Sequence of broad panel of kinases (Homo sapiens, UniProt Q13523) (Q13523 2-1007 limits assumed): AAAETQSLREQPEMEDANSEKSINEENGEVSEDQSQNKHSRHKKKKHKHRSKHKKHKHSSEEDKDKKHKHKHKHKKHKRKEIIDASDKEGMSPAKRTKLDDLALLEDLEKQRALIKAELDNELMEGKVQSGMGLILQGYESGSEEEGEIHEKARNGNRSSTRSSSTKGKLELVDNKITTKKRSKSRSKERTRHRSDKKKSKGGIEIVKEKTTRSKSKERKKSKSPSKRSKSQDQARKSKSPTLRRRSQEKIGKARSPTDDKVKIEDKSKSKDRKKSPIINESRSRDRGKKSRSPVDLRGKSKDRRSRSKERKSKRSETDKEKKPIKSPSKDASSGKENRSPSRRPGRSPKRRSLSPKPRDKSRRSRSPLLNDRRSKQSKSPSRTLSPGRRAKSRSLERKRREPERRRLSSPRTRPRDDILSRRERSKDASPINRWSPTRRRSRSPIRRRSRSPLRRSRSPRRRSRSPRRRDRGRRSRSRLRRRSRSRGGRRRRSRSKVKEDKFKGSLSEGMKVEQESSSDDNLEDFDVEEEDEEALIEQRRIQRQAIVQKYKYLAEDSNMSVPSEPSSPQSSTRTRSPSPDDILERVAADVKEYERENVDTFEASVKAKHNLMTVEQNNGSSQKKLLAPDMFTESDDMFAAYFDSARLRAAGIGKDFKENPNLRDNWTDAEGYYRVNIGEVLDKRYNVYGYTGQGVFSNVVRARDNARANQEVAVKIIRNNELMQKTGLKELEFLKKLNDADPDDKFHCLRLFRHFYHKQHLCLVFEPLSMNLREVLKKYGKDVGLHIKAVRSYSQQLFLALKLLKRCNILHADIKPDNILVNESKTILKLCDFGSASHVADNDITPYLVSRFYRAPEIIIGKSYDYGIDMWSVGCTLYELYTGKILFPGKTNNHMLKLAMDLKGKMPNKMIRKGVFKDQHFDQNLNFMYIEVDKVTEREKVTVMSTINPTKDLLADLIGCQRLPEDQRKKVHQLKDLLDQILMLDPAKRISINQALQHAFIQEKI

[5] = molecular target: broad panel of kinases (Homo sapiens, UniProt P10721, L576P); conditions: KIT(L576P); 1 μM
[6] = molecular target: broad panel of kinases (Homo sapiens, UniProt Q9NQU5); conditions: PAK6; 1 μM
[7] = molecular target: broad panel of kinases (Homo sapiens, UniProt P00519, F317I); conditions: 1 μM
[8] = molecular target: broad panel of kinases (Homo sapiens, UniProt Q00526); conditions: CDK3; 1 μM
[9] = molecular target: broad panel of kinases (Homo sapiens, UniProt Q5S007); conditions: LRRK2; 1 μM
[10] = molecular target: broad panel of kinases (Homo sapiens, UniProt Q9NWZ3); conditions: IRAK4; 1 μM
[11] = molecular target: broad panel of kinases (Homo sapiens, UniProt Q96L34); conditions: MARK4; 1 μM
[12] = molecular target: broad panel of kinases (Homo sapiens, UniProt Q14004); conditions: CDC2L5; 1 μM
[13] = molecular target: broad panel of kinases (Homo sapiens, UniProt P46734); conditions: MEK3; 1 μM
[14] = molecular target: broad panel of kinases (Homo sapiens, UniProt Q13233); conditions: MAP3K1; 1 μM
[15] = molecular target: broad panel of kinases (Homo sapiens, UniProt Q9UKE5); conditions: TNIK; 1 μM
[16] = molecular target: broad panel of kinases (Homo sapiens, UniProt P57059); conditions: SIK; 1 μM
[17] = molecular target: broad panel of kinases (Homo sapiens, UniProt O96017); conditions: CHEK2; 1 μM
[18] = molecular target: broad panel of kinases (Homo sapiens, UniProt P51812); conditions: 1 μM
[19] = molecular target: broad panel of kinases (Homo sapiens, UniProt P00519, E255K); conditions: ABL1(E255K)-phosphorylated; 1 μM
[20] = molecular target: broad panel of kinases (Homo sapiens, UniProt P04629); conditions: TRKA; 1 μM
Sequence of broad panel of kinases (Homo sapiens, UniProt P04629) (P04629 33-796 limits assumed): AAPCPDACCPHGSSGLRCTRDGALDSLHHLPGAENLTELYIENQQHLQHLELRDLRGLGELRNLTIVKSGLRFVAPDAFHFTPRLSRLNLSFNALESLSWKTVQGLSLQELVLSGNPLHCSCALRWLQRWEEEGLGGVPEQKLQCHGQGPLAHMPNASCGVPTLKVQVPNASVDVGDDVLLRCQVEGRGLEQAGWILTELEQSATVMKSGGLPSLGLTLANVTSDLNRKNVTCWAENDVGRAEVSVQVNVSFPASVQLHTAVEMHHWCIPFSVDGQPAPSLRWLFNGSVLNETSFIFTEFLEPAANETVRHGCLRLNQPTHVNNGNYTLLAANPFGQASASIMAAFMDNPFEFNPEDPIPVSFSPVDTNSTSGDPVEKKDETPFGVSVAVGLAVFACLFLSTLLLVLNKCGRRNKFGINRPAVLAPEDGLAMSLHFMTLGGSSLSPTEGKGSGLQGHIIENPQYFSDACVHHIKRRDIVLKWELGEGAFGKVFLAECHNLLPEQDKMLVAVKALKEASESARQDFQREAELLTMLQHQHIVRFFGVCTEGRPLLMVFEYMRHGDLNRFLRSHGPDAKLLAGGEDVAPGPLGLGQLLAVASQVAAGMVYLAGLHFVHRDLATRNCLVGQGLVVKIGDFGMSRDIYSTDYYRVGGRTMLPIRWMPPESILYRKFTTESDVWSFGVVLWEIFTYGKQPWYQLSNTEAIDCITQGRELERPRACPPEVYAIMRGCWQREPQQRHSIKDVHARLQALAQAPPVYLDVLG

[21] = molecular target: broad panel of kinases (Homo sapiens, UniProt Q13131); conditions: AMPK-alpha1; 1 μM
[22] = molecular target: broad panel of kinases (Homo sapiens, UniProt P07949); conditions: RET; 1 μM
Sequence of broad panel of kinases (Homo sapiens, UniProt P07949) (P07949 29-1114 limits assumed): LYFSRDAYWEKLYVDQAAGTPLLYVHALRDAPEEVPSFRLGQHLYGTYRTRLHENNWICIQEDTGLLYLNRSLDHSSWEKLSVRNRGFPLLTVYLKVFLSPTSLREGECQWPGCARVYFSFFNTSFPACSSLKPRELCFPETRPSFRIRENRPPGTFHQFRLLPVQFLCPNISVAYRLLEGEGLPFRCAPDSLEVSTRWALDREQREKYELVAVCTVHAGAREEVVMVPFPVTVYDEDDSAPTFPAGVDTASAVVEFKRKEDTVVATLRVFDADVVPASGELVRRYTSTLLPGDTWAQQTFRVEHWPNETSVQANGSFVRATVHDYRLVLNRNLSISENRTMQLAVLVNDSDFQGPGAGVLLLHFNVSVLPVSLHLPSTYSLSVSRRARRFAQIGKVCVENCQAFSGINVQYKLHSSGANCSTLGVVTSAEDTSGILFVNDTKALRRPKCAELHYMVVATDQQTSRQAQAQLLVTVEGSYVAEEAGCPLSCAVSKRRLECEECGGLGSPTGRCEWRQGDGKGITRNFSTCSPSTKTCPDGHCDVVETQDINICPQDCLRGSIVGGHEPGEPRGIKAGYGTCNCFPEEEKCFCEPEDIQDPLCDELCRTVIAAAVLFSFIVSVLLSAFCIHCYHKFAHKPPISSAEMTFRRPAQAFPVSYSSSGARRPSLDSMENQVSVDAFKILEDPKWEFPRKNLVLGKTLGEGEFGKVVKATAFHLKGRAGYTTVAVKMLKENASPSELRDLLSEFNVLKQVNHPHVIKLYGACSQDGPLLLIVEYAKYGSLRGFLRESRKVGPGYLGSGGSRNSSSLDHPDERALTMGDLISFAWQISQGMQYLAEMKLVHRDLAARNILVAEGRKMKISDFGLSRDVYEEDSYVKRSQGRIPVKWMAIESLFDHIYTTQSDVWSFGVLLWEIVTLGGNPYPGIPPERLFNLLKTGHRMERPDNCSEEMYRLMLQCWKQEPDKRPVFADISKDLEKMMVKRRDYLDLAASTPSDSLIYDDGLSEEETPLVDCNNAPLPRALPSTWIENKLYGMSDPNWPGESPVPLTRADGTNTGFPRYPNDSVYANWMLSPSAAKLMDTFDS

[23] = molecular target: broad panel of kinases (Homo sapiens, UniProt P53355); conditions: DAPK1; 1 μM
[24] = molecular target: broad panel of kinases (Homo sapiens, UniProt Q9P2K8, S808G); conditions: GCN2(Kin.Dom.2, S808G); 1 μM
[25] = molecular target: broad panel of kinases (Homo sapiens, UniProt Q86YV6); conditions: MYLK4; 1 μM
[26] = molecular target: broad panel of kinases (Homo sapiens, UniProt P12931); conditions: SRC; 1 μM
Sequence of broad panel of kinases (Homo sapiens, UniProt P12931) (P12931 2-536 limits assumed): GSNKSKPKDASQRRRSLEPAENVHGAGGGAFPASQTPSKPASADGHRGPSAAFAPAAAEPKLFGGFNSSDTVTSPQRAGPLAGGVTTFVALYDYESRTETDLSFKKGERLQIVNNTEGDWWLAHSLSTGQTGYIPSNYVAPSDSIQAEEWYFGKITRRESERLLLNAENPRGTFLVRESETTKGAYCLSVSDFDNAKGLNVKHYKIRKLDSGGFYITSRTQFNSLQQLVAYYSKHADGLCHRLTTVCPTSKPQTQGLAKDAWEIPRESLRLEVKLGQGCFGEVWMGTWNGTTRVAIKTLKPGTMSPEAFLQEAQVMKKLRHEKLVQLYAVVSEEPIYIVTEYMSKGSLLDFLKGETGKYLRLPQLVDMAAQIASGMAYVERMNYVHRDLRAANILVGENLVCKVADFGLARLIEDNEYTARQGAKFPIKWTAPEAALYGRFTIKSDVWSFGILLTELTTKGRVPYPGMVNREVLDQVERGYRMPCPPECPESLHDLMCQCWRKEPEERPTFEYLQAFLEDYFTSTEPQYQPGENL

[27] = molecular target: broad panel of kinases (Homo sapiens, UniProt P49674); conditions: CSNK1E; 1 μM
[28] = molecular target: broad panel of kinases (Homo sapiens, UniProt Q16832); conditions: DDR2; 1 μM
Sequence of broad panel of kinases (Homo sapiens, UniProt Q16832) (Q16832 22-855 limits assumed): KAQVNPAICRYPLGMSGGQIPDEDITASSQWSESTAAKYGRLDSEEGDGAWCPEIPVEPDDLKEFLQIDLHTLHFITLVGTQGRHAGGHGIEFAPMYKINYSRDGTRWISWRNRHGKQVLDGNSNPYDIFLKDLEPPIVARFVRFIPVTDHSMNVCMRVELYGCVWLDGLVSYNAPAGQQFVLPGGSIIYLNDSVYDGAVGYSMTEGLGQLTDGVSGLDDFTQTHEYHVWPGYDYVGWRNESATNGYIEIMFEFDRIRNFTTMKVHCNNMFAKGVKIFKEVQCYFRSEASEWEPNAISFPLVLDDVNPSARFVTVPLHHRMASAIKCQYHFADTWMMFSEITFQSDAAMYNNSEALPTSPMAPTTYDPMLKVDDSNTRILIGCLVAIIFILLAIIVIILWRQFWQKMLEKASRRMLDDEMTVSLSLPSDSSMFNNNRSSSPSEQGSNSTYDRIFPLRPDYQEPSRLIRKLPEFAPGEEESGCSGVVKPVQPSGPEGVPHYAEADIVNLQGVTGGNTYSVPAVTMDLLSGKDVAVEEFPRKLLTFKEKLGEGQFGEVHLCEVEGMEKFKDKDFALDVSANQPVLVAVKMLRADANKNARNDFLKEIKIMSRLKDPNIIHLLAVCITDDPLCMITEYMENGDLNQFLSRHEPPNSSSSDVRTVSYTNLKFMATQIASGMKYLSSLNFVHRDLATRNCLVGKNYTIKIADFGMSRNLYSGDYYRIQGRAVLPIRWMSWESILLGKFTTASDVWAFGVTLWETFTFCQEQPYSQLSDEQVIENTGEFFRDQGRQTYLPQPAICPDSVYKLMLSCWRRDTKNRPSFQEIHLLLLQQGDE

[29] = molecular target: broad panel of kinases (Homo sapiens, UniProt Q15569); conditions: TESK1; 1 μM
[30] = molecular target: broad panel of kinases (Homo sapiens, UniProt P36888, D835Y); conditions: FLT3(D835Y); 1 μM
[31] = molecular target: broad panel of kinases (Homo sapiens, UniProt Q9Y6R4); conditions: MAP3K4; 1 μM
[32] = molecular target: broad panel of kinases (Homo sapiens, UniProt P30530); conditions: AXL; 1 μM
Sequence of broad panel of kinases (Homo sapiens, UniProt P30530) (P30530 26-894 limits assumed): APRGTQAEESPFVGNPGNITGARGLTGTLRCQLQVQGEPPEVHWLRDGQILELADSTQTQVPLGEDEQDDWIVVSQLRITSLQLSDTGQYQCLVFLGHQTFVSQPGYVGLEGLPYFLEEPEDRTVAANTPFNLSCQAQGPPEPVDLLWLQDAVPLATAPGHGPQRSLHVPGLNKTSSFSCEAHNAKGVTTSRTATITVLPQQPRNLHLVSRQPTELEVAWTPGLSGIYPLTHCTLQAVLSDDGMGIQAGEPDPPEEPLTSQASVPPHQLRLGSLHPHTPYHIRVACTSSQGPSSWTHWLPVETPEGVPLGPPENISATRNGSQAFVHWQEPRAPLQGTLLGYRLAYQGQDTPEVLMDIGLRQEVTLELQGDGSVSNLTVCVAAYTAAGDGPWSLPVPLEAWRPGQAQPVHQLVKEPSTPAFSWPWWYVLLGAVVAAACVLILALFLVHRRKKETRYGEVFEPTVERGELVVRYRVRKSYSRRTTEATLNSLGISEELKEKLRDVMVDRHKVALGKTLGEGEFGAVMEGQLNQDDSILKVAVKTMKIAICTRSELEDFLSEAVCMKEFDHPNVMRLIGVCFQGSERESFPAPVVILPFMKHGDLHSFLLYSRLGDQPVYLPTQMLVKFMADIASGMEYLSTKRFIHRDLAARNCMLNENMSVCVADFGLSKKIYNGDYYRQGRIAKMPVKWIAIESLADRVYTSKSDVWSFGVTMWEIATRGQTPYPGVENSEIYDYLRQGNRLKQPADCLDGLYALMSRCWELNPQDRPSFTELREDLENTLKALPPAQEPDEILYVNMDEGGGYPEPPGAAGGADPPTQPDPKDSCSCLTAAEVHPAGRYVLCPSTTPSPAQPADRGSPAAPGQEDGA

[33] = molecular target: broad panel of kinases (Homo sapiens, UniProt P53671); conditions: LIMK2; 1 μM
[34] = molecular target: broad panel of kinases (Homo sapiens, UniProt Q8TD08); conditions: ERK8; 1 μM
[35] = molecular target: broad panel of kinases (Homo sapiens, UniProt Q8N752); conditions: CSNK1A1L; 1 μM
[36] = molecular target: broad panel of kinases (Homo sapiens, UniProt P78368); conditions: CSNK1G2; 1 μM

Q: For `C=CC(=O)N1CC[C@H](Nc2nc(CN3CCOCC3)cc(Nc3ncc(C(=O)Nc4c(C)cccc4C)s3)n2)C1` [Example I-2], which “percent of control binding remaining (lower = stronger binding)” value [1] is on record?
A: The value was 92%.

Q: What about the “percent of control binding remaining (lower = stronger binding)” value [2] of the same molecule?
A: Its value is 97%.

Q: What about the “percent of control binding remaining (lower = stronger binding)” value ([3]; ABL1(T315I)-nonphosphorylated) of the same molecule?
A: Its value is 95%.

Q: What about the “percent of control binding remaining (lower = stronger binding)” value ([3]; ABL1(T315I)-phosphorylated) of the same molecule?
A: The value was 69%.

Q: What about the “percent of control binding remaining (lower = stronger binding)” value [4] of the same molecule?
A: Its value is 95%.

Q: And the “percent of control binding remaining (lower = stronger binding)” value [5]?
A: The value was 0%.

Q: And the “percent of control binding remaining (lower = stronger binding)” value [6]?
A: The value was 93%.

Q: What about the “percent of control binding remaining (lower = stronger binding)” value ([7]; ABL1(F317I)-nonphosphorylated) of the same molecule?
A: The value was 0.15%.

Q: What about the “percent of control binding remaining (lower = stronger binding)” value ([7]; ABL1(F317I)-phosphorylated) of the same molecule?
A: The value was 5.4%.

Q: What about the “percent of control binding remaining (lower = stronger binding)” value [8] of the same molecule?
A: The value was 73%.

Q: What about the “percent of control binding remaining (lower = stronger binding)” value [9] of the same molecule?
A: The value was 94%.

Q: And the “percent of control binding remaining (lower = stronger binding)” value [10]?
A: The value was 76%.

Q: What about the “percent of control binding remaining (lower = stronger binding)” value [11] of the same molecule?
A: Its value is 91%.

Q: What about the “percent of control binding remaining (lower = stronger binding)” value [12] of the same molecule?
A: Its value is 100%.

Q: What about the “percent of control binding remaining (lower = stronger binding)” value [13] of the same molecule?
A: Its value is 99%.

Q: What about the “percent of control binding remaining (lower = stronger binding)” value [14] of the same molecule?
A: Its value is 70%.

Q: And the “percent of control binding remaining (lower = stronger binding)” value [15]?
A: The value was 97%.

Q: And the “percent of control binding remaining (lower = stronger binding)” value [16]?
A: Its value is 0.8%.

Q: And the “percent of control binding remaining (lower = stronger binding)” value [17]?
A: Its value is 97%.

Q: And the “percent of control binding remaining (lower = stronger binding)” value ([18]; RSK2(Kin.Dom.1-N-terminal))?
A: Its value is 95%.

Q: And the “percent of control binding remaining (lower = stronger binding)” value ([18]; RSK2(Kin.Dom.2-C-terminal))?
A: The value was 100%.

Q: And the “percent of control binding remaining (lower = stronger binding)” value [19]?
A: Its value is 0.45%.

Q: What about the “percent of control binding remaining (lower = stronger binding)” value [20] of the same molecule?
A: The value was 98%.

Q: What about the “percent of control binding remaining (lower = stronger binding)” value [21] of the same molecule?
A: The value was 100%.

Q: And the “percent of control binding remaining (lower = stronger binding)” value [22]?
A: The value was 100%.

Q: And the “percent of control binding remaining (lower = stronger binding)” value [23]?
A: The value was 100%.

Q: What about the “percent of control binding remaining (lower = stronger binding)” value [24] of the same molecule?
A: The value was 85%.

Q: And the “percent of control binding remaining (lower = stronger binding)” value [25]?
A: The value was 98%.

Q: What about the “percent of control binding remaining (lower = stronger binding)” value [26] of the same molecule?
A: Its value is 0%.

Q: What about the “percent of control binding remaining (lower = stronger binding)” value [27] of the same molecule?
A: Its value is 84%.

Q: And the “percent of control binding remaining (lower = stronger binding)” value [28]?
A: Its value is 8.6%.

Q: And the “percent of control binding remaining (lower = stronger binding)” value [29]?
A: The value was 60%.

Q: And the “percent of control binding remaining (lower = stronger binding)” value [30]?
A: The value was 97%.

Q: And the “percent of control binding remaining (lower = stronger binding)” value [31]?
A: Its value is 83%.

Q: And the “percent of control binding remaining (lower = stronger binding)” value [32]?
A: The value was 96%.

Q: What about the “percent of control binding remaining (lower = stronger binding)” value [33] of the same molecule?
A: The value was 51%.

Q: What about the “percent of control binding remaining (lower = stronger binding)” value [34] of the same molecule?
A: Its value is 97%.

Q: And the “percent of control binding remaining (lower = stronger binding)” value [35]?
A: The value was 100%.

Q: What about the “percent of control binding remaining (lower = stronger binding)” value [36] of the same molecule?
A: The value was 97%.

Q: How did the “percent of control binding remaining (lower = stronger binding)” value [1] turn out when `C=CC(=O)N1CC[C@H](Nc2nccc(Nc3ncc(C(=O)Nc4c(C)cccc4C)s3)n2)C1` [Example I-3] was run?
A: Its value is 100%.

Q: And the “percent of control binding remaining (lower = stronger binding)” value [2]?
A: Its value is 88%.

Q: What about the “% change compared to control” value ([3]; ABL1(T315I)-nonphosphorylated) of the same molecule?
A: The value was 100%.

Q: What about the “% change compared to control” value ([3]; ABL1(T315I)-phosphorylated) of the same molecule?
A: The value was 70%.

Q: And the “percent of control binding remaining (lower = stronger binding)” value [4]?
A: Its value is 100%.

Q: What about the “percent of control binding remaining (lower = stronger binding)” value [5] of the same molecule?
A: The value was 0%.

Q: What about the “percent of control binding remaining (lower = stronger binding)” value [6] of the same molecule?
A: The value was 84%.

Q: What about the “% change compared to control” value ([7]; ABL1(F317I)-nonphosphorylated) of the same molecule?
A: The value was 1.2%.

Q: What about the “% change compared to control” value ([7]; ABL1(F317I)-phosphorylated) of the same molecule?
A: The value was 5.2%.

Q: And the “percent of control binding remaining (lower = stronger binding)” value [8]?
A: The value was 100%.

Q: What about the “percent of control binding remaining (lower = stronger binding)” value [9] of the same molecule?
A: Its value is 100%.

Q: And the “percent of control binding remaining (lower = stronger binding)” value [10]?
A: The value was 96%.

Q: What about the “percent of control binding remaining (lower = stronger binding)” value [11] of the same molecule?
A: The value was 80%.

Q: What about the “percent of control binding remaining (lower = stronger binding)” value [12] of the same molecule?
A: Its value is 100%.

Q: And the “percent of control binding remaining (lower = stronger binding)” value [13]?
A: Its value is 100%.

Q: What about the “percent of control binding remaining (lower = stronger binding)” value [14] of the same molecule?
A: The value was 80%.

Q: What about the “percent of control binding remaining (lower = stronger binding)” value [15] of the same molecule?
A: Its value is 93%.

Q: What about the “percent of control binding remaining (lower = stronger binding)” value [16] of the same molecule?
A: The value was 0.4%.

Q: And the “percent of control binding remaining (lower = stronger binding)” value [17]?
A: The value was 97%.

Q: And the “percent of control binding remaining (lower = stronger binding)” value ([18]; RSK2(Kin.Dom.1-N-terminal))?
A: Its value is 97%.

Q: And the “percent of control binding remaining (lower = stronger binding)” value ([18]; RSK2(Kin.Dom.2-C-terminal))?
A: Its value is 100%.

Q: And the “% change compared to control” value [19]?
A: Its value is 0.5%.

Q: And the “percent of control binding remaining (lower = stronger binding)” value [20]?
A: Its value is 99%.

Q: What about the “percent of control binding remaining (lower = stronger binding)” value [21] of the same molecule?
A: Its value is 98%.

Q: What about the “percent of control binding remaining (lower = stronger binding)” value [22] of the same molecule?
A: Its value is 86%.

Q: What about the “percent of control binding remaining (lower = stronger binding)” value [23] of the same molecule?
A: Its value is 100%.

Q: And the “percent of control binding remaining (lower = stronger binding)” value [24]?
A: The value was 100%.

Q: What about the “percent of control binding remaining (lower = stronger binding)” value [25] of the same molecule?
A: Its value is 100%.

Q: What about the “percent of control binding remaining (lower = stronger binding)” value [26] of the same molecule?
A: The value was 0%.

Q: What about the “percent of control binding remaining (lower = stronger binding)” value [27] of the same molecule?
A: The value was 96%.

Q: And the “percent of control binding remaining (lower = stronger binding)” value [28]?
A: Its value is 8.4%.

Q: And the “percent of control binding remaining (lower = stronger binding)” value [29]?
A: Its value is 88%.

Q: What about the “percent of control binding remaining (lower = stronger binding)” value [30] of the same molecule?
A: The value was 100%.

Q: What about the “percent of control binding remaining (lower = stronger binding)” value [31] of the same molecule?
A: Its value is 95%.

Q: What about the “% change compared to control” value [32] of the same molecule?
A: The value was 76%.

Q: What about the “percent of control binding remaining (lower = stronger binding)” value [33] of the same molecule?
A: The value was 65%.

Q: And the “percent of control binding remaining (lower = stronger binding)” value [34]?
A: The value was 99%.

Q: What about the “percent of control binding remaining (lower = stronger binding)” value [35] of the same molecule?
A: Its value is 95%.

Q: What about the “percent of control binding remaining (lower = stronger binding)” value [36] of the same molecule?
A: Its value is 93%.
